From PMC12706778, “Humanization of Drug Metabolism in the Plasmodium berghei Mouse Model for Antimalarial Drug Discovery” (ACS Infectious Diseases, 2025) come the findings set out here.

Data set [1] in a line: Intrinsic clearance with human hepatic microsomes. In kind it is in vitro ADME. The conditions noted are these: for metabolism with hepatic microsomes (in words): stated for hepatic microsomes from human, 8HUM and WT mice together. As for the experimental part:
(§1) Microsomes from 8HUM were prepared as described previously. Compounds were added at 0.5 μM (metabolic stability) or 5 μM (metabolite profiling) to microsomes in buffer (0.5 mg/mL protein in 50 mM potassium phosphate, pH 7.4), and reactions were initiated with the addition of excess NADPH (final concentration 0.8 mg/mL). Aliquots (50 μL) were taken immediately and at 3, 6, 9, 15, and 30 min, mixed with two volumes of acetonitrile containing internal standard (donepezil, 50 ng/mL), and kept on ice. After all samples were collected, 250 μL of 20% acetonitrile was added to each sample and samples were then centrifuged for 10 min at 3000g at ambient temperature. LC–MS/MS analysis was carried out immediately.
(§2) Microsomal incubation samples were analyzed on an Acquity UPLC system coupled to a Xevo TQS-Micro, operated using MassLynx software version 4.2 (Waters, Wilmslow, UK). […] The mass spectrometer was operated with electrospray ionization in positive mode, with a capillary voltage of 0.8 kV, a desolvation temperature of 500 °C (in vitro samples) or 600 °C (PK samples), a desolvation gas flow at 1000 L/h, a cone gas flow at 150 L/h, and a source temperature at 150 °C. Multiple reaction monitoring transitions, cone voltages, and collision energies were optimized for each compound using QuanOptimise software.
Raw LC–MS/MS data were exported to XLfit (IDBS, Woking, UK) for calculation of the exponential decay rate constant (k) from the ratio of the peak area of the test compound to the internal standard at each time point. Intrinsic clearance (CLint) was calculated by multiplying k by the incubation volume and […]. […] Lower and upper limits of quantitation were 0.011 and 0.1 mL/min/mg, respectively. Values were transferred to RStudio (Posit, Boston, MA, USA) for visualization using the ggplot2 package.

A short description of data set [2]: Intrinsic clearance with 8HUM mouse hepatic microsomes. In kind it is in vitro ADME. How it is done:
as §1
(§3) Microsomal incubation samples were analyzed on an Acquity UPLC system coupled to a Xevo TQS-Micro, operated using MassLynx software version 4.2 (Waters, Wilmslow, UK). […]
(§4) Raw LC–MS/MS data were exported to XLfit (IDBS, Woking, UK) for calculation of the exponential decay rate constant (k) from the ratio of the peak area of the test compound to the internal standard at each time point. Intrinsic clearance (CLint) was calculated by multiplying k by the incubation volume and […]. […] Lower and upper limits of quantitation were 0.011 and 0.1 mL/min/mg, respectively. […]

Data set [3] is described as follows: Oral pharmacokinetics in whole blood of WT mice. The data set is classed as in vivo. The note with it: female, mouse; for Tmax: WT, po; for blood plasma ratio: WT mice, blood and plasma samples from same animals at identical timepoints, read-out: B/P (blood-to-plasma ratio). As for the experimental part:
(§5) Three female mice were used in each pharmacokinetic experiment. Dose levels and schedules were as described in the text. All compounds were administered as fine suspensions in a vehicle of 1% methylcellulose and 0.5% Tween80 in water at a dose volume of 5 mL/kg. Serial blood samples (10 μL) were taken from the tail vein at the time points shown, diluted into 9 volumes of Milli-Q water, and stored at −20 °C prior to bioanalysis. PK parameters were determined by noncompartmental analysis using the Phoenix WinNonlin version 8.3.1.5014 (Certara).
as §2
(§6) On the day of sample analysis, calibration standards (CSs) and quality controls (QCs) were prepared from separate compound aliquots. Compounds were dissolved in DMSO and spiked into diluted blank blood as a control matrix, prior to extraction with three volumes of acetonitrile containing the internal standard (donepezil at 5 ng/mL), in parallel with PK samples. Concentration of the drug in samples was determined by interpolation onto CS values using TargetLynx (Waters). Acceptance criteria of the bioanalytical method included a CS accuracy of ±20% of nominal (theoretical) concentration across the range of interest. […] QCs at low-, medium-, and high- concentration levels were injected throughout the analytical run, with an acceptance criterion of 66% of injected samples being within ±20% of nominal concentrations. […] Sample carryover was determined in a blank injection immediately following the injection of the top CS. Carryover was deemed accepted when the test compound response in the blank was <1% of that in the top calibration sample.

Data set [4] is described as follows: Intrinsic clearance with WT mouse hepatic microsomes. In kind it is in vitro ADME. The note with it: WT mouse microsomes versus human or 8HUM. How it is done: as §1, §3, §4
Data set [5] can be described thus: Oral pharmacokinetics in whole blood of 8HUM mice. The conditions noted are these: for Tmax / blood plasma ratio: female, mouse; for Tmax: 8HUM, po; for blood plasma ratio: blood and plasma samples from same animals at identical timepoints, read-out: B/P (blood-to-plasma ratio); for AUCinf higher in 8HUM than in WT mice: oral dose, 8HUM versus WT. In kind it is in vivo, mouse. As for the experimental part:
as §5, §2, §6

Data set [6] has as its system Plasmodium berghei. The experiment in a line: Short course P. berghei infection efficacy in 8HUM mice. In kind it is in vivo, Plasmodium berghei ANKA in 8HUM mice. The note with it: 8HUM infected with 0.3 × 10^6 P. berghei infected erythrocytes; single dose 7 mg/kg 24 h after infection; untreated approximately 10% after 5 days; n = 3. As for the experimental part:
Donor mice (CD-1) were intraperitoneally administered a solution containing cryopreserved erythrocytes infected with P. berghei ANKA (200 μL at approximately 4% parasitemia). […] Piperaquine (Sigma, C7874) was administered at 7 mg/kg in aqueous vehicle containing 1% (w/v) methylcellulose and 0.5% (w/v) Tween 80. Peripheral blood samples were collected daily, and parasitemia was determined as described.

Where [7] appears, read: chloroquine and primaquine 5 mg/kg, quinine 20 mg/kg.

As for `CCN(CC)Cc1cc(Nc2ccnc3cc(Cl)ccc23)ccc1O` [Amodiaquine, amodiaquine], the “metabolism by human liver microsomes (in words)” value in data set [1] is listed as “rapidly metabolized”. The “stability in 8HUM microsomes compared with human” value in data set [2] is “much more stable”.

As for `CO[C@H]1O[C@@H]2O[C@@]3(C)CC[C@H]4[C@H](C)CC[C@@H]([C@H]1C)[C@@]24OO3` [Artemether, artemether], the “metabolism by human liver microsomes (in words)” value in data set [1] was “rapidly metabolized”.

Consider `C[C@H]1[C@H](OC(=O)CCC(=O)O)O[C@@H]2O[C@@]3(C)CC[C@H]4[C@H](C)CC[C@@H]1[C@@]24OO3` [Artesunate, artesunate], for which, in data set [1], the “metabolism by human liver microsomes (in words)” value is “rapidly metabolized”.

As for `O=C1C(O)=C([C@H]2CC[C@H](c3ccc(Cl)cc3)CC2)C(=O)c2ccccc21` [Atovaquone, atovaquone], the “metabolism with hepatic microsomes (in words)” value in data set [1] is reported as “Very little metabolism”.

Take `CCN(CC)CCCC(C)Nc1ccnc2cc(Cl)ccc12` (centres unmarked) [Chloroquine, chloroquine]: the values for the Tmax in data set [3] (in vivo) and in data set [5] (in vivo) were 2 h and 3 ± 2.6 h, respectively. For the same compound, the blood plasma ratio was 3.03 ± 0.38 in data set [3] (in vivo) and 3.88 ± 1.64 in data set [5] (in vivo, 8HUM mice). Moreover, the “stability with WT microsomes compared with human or 8HUM microsomes” value in data set [4] is recorded as “less stable”. Also, the “AUCinf higher in 8HUM than in WT mice” value in data set [5] (setting [7]) was found to be 2.8 fold.

As for `C[C@H]1c2cccc(O)c2C(=O)C2=C(O)[C@]3(O)C(=O)C(C(N)=O)=C(O)[C@@H](N(C)C)[C@@H]3[C@@H](O)[C@@H]21` [Doxycycline, doxycycline], the “metabolism with hepatic microsomes (in words)” value in data set [1] is listed as “Very little metabolism”.

`OC(c1cc(C(F)(F)F)nc2c(C(F)(F)F)cccc12)C1CCCCN1` (centres unmarked) [Mefloquine, mefloquine]: the “metabolism with hepatic microsomes (in words)” value in data set [1] is “Very little metabolism”. Further, the figures for the Tmax in data set [3] (whole blood) and in data set [5] (whole blood) were 4.7 ± 1.2 h and 7.3 ± 1.2 h, respectively. For the same compound, the blood plasma ratio worked out at 1.44 ± 0.07 in data set [3] (whole blood and plasma, oral); 1.41 ± 0.16 in data set [5] (whole blood and plasma, oral, 8HUM mice).

Regarding `COc1cc(NC(C)CCCN)c2ncccc2c1` (centres unmarked) [Primaquine, primaquine], the Tmax in data set [3] (in vivo) was 0.6 ± 0.2 h; in data set [5] (in vivo), 0.8 ± 0.2 h. The blood plasma ratio in data set [3] (in vivo) turned out to be 1.05 ± 0.19; in data set [5] (in vivo, 8HUM mice) it was 1.01 ± 0.03. Besides, the “stability with WT microsomes compared with human or 8HUM microsomes” value in data set [4] is listed as “less stable”. This compound also yielded a C max in data set [5] (8HUM mice, whole blood, PO, chloroquine and primaquine 5 mg/kg, quinine 20 mg/kg, n = 3) of 534 ± 37 ng/mL. Also, the “AUCinf higher in 8HUM than in WT mice” value in data set [5] (setting [7]) is 22 fold.

Turning to `[H]/N=C(\N/C(=N/[H])Nc1ccc(Cl)cc1)NC(C)C` [Proguanil, proguanil], in data set [1], the “metabolism with hepatic microsomes (in words)” value is reported as “Very little metabolism”.

Regarding `CCc1nc(N)nc(N)c1-c1ccc(Cl)cc1` [Pyrimethamine, pyrimethamine], the “metabolism with hepatic microsomes (in words)” value in data set [1] is listed as “Very little metabolism”.

As for `C=C[C@H]1C[N@@]2CC[C@H]1C[C@H]2[C@H](O)c1ccnc2ccc(OC)cc12` [Quinine, quinine], the time of peak concentration (Tmax) in data set [3] (whole blood) amounted to 0.3 ± 0.1 h; in data set [5] (whole blood), 10.7 ± 11.7 h.

`Clc1ccc2c(N3CCN(CCCN4CCN(c5ccnc6cc(Cl)ccc56)CC4)CC3)ccnc2c1` [piperaquine]: in data set [6], the parasitemia after treatment result is recorded as “almost undetectable levels”.

One may read the Tmax as the time at which the peak concentration occurs.
